Entries after “also recorded” stand apart in the source; their conditions may differ. Marks after values point to notes of the source that are not given here.
Assays:
[1] = test system: C57BL/6 mice with UUO surgical ligation; test: Example 2: UUO mice, renal function evaluation (plasma BUN, creatinine); assay type: in vivo; settings: for Level of BUN compared to vehicle or other agents, in words: mg/kg PO QD: Telmisartan 3, Bemithyl 200, Repirinast 30, Telmisartan+Bemithyl 3+200, Telmisartan+Repirinast 3+30, Cenicriviroc 40, Bromantane 40; for BUN / Creatinine: plasma at sacrifice day 15, group mean, UUO, female C57BL/6 mice, PO QD days 1-14
Experimental: (§1) In this example, healthy young female C57BL/6 mice were used for the study. At the commencement of the study, mice were between 9-12 weeks of age, weighing 23-25 g. All the mice were obtained from Charles River Laboratories.
(§2) The mice were maintained in a controlled environment with a temp 70-72° F., humidity 30-70%, with a photo cycle of 12 hours of light and 12 hours of dark. They were provided with Harlan Teklad 2018 standard maintenance mouse chow diet and drinking water ad libitium.
(§3) After five days of acclimatization, the mice were grouped according to their body weight. There were ten groups of ten mice each. Nine groups of ten mice each underwent UUO as described above and the other group of ten mice underwent a sham procedure to serve as a no-surgery control.
(§4) Following surgery, the mice were divided into 10 individual study groups of 10 mice each and, following post-surgical recovery, administered a once-daily oral treatment for 14 days. The mice in 8 of the 10 study groups had all received the UUO surgical ligation and were treated individually with a distinct pharmacologic compound as set out in Table 6. The mice in 2 of the 10 study groups were treated individually with a pharmaceutically acceptable vehicle with no active ingredient. The pharmaceutically acceptable vehicle in all groups was 0.5% carboxymethyl cellulose (CMC). All mice were sacrificed with CO2 on post-surgical day 15.
(§5) The dose selected for the animal studies was determined by taking the maximum known human daily dose, dividing by the average weight of an adult (˜60-70 kg) to get a human mg/kg dose. That number was multiplied by 12 to convert to a mouse dose based on conventional dosing tables. See Nair and Jacob, J Basic Clin Pharm March 2016-May 2016, 7(2):27-31.
Serum collection: A blood sample was then collected from all mice and plasma analyzed for urea nitrogen and creatinine. Plasma was stored at −80° C. for possible future analysis.
(§6) The data are presented as the mean obtained from Microsoft Excel or GraphPad Prism version 5.00 for Windows (GraphPad Software, San Diego California USA). Data were analyzed using two-way ANOVA using Bonferroni and Tamhane post-tests. Differences between groups were considered significant at p<0.05.
Renal Function Evaluation: Renal function and disease progression was evaluated by BUN (blood urea nitrogen) as previously described. The BUN of each study group consisted of the BUN average of all mice in each study group.

[2] = Example 2: UUO mice, mean body weight change following surgery; assay type: in vivo, C57BL/6 mice; settings: for Mean Body Weight Change Following Surgery, Day 1 / Mean Body Weight Change Following Surgery, Day 4 / Mean Body Weight Change Following Surgery, Day 7 / Mean Body Weight Change Following Surgery, Day 10 / Mean Body Weight Change Following Surgery, Day 14: UUO, female C57BL/6 mice, PO QD days 1-14; for Body weight course after surgery, in words: Example 2
Experimental: as §1, §2, §3, §4, §5
Body weight: The body weights were measured on days 1, 4, 7, 10 and 14 using a laboratory balance.
Body weights were measured on post-surgical days 1, 4, 7, 10 and 14 as previously described. The mean body weight change of each study group was calculated using the body weight average of all mice in each study group.

[3] = test system: C57BL/6 mice with UUO surgical ligation; test: Example 2: UUO mice, kidney weight evaluation; assay type: in vivo; settings: group mean, UUO, female C57BL/6 mice, PO QD days 1-14; for Excised Left Kidney: ligated kidney; for Right Kidney (g): unligated kidney
Experimental: as §1, §2, §3, §4, §5
Kidney weight: The UUO was then examined in situ to ensure that the surgical ligation ties remained patent. Both the ligated (UUO) and non-ligated kidneys were removed for analysis. Weights of both kidneys were measured using a laboratory balance.
as §6
Kidney Weight Evaluation: Kidney weight, which indicates functional and pathological changes in the kidney, was evaluated by measuring the weight of both the ligated (UUO) and non-ligated kidneys as previously described. The ligated and non-ligated kidney weights of each study group consisted of the respective kidney weight averages of all mice in each study group.

[4] = test system: C57BL/6 mice with UUO surgical ligation; test: Example 1: UUO mice, renal function evaluation (plasma BUN, creatinine); assay type: in vivo; settings: for Reduction in BUN compared to vehicle, in words, post-test not stated: Example 1 text and conclusions, Bemithyl 200, Repirinast 30, Bromantane 20, Telmisartan 5 mg/kg PO QD
Outline: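 Male C57BL/6 mice (9-12 weeks, 23-25 g) had the left ureter ligated at two points (sham controls unligated), then received once-daily oral compound or 0.5% CMC vehicle for 14 days; doses scaled from maximum human daily dose ×12. Sacrifice on day 15; plasma urea nitrogen and creatinine measured, BUN averaged per group (n = 8).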

[5] = * significant vs vehicle Bonferroni, # Tamhane (p<0.05), mg/kg: Telmisartan 3, Bemithyl 200, Repirinast 30, Telmisartan+Bemithyl 3+200, Telmisartan+Repirinast 3+30, Cenicriviroc 40, Bromantane 40
[6] = mg/kg: Telmisartan 3, Bemithyl 200, Repirinast 30, Telmisartan+Bemithyl 3+200, Telmisartan+Repirinast 3+30, Cenicriviroc 40, Bromantane 40
[7] = ligated kidney drained, mg/kg: Telmisartan 3, Bemithyl 200, Repirinast 30, Telmisartan+Bemithyl 3+200, Telmisartan+Repirinast 3+30, Cenicriviroc 40, Bromantane 40

Row | Structure (SMILES) | Level of BUN compared to vehicle or other agents, in words ([1]; Example 2) | BUN [1, 5] | Creatinine [1, 6] | Mean Body Weight Change Following Surgery, Day 1 [2, 6] | Mean Body Weight Change Following Surgery, Day 4 [2, 6] | Mean Body Weight Change Following Surgery, Day 7 [2, 6] | Mean Body Weight Change Following Surgery, Day 10 [2, 6] | Mean Body Weight Change Following Surgery, Day 14 [2, 6] | Excised Left Kidney [3, 6] | Right Kidney (g) [3, 6] | Reduction in BUN compared to vehicle, in words, post-test not stated [4] | other results
1 | Cc1ccc2c([nH]c(=O)c3c(=O)cc(C(=O)OCCC(C)C)oc32)c1C [Repirinast, 3-methylbutyl 7,8-dimethyl-4,5-dioxo-5,6-dihydro-4H-pyrano[3,2-c]quinoline-2-carboxylate] | significant reductions in the level of BUN compared to vehicle | 18.5*# mg/dL | 0.20 mg/dL | 0 g | 0.34 g | 0.35 g | 0.83 g | 0.86 g | 0.412 g | 0.1468* g | significant reductions in BUN compared to vehicle | Level of BUN compared to vehicle, in words ([1]; Example 2, Repirinast 90 mg/kg PO QD): significant reductions in the level of BUN compared to vehicle; also recorded: reduction in BUN compared to vehicle; BUN ([1]; Repirinast 90 mg/kg): 17.6*# mg/dL; Creatinine ([1]; Repirinast 90 mg/kg): 0.20 mg/dL; Mean Body Weight Change Following Surgery, Day 1 ([2]; Repirinast 90 mg/kg): 0 g; Mean Body Weight Change Following Surgery, Day 4 ([2]; Repirinast 90 mg/kg): 0.31 g; Mean Body Weight Change Following Surgery, Day 7 ([2]; Repirinast 90 mg/kg): 0.60 g; Mean Body Weight Change Following Surgery, Day 10 ([2]; Repirinast 90 mg/kg): 0.86 g; Mean Body Weight Change Following Surgery, Day 14 ([2]; Repirinast 90 mg/kg): 1.08 g; Body weight course after surgery, in words ([2]; Repirinast 90 mg/kg PO QD): no initial decrease in body weight; also recorded: appeared to reverse the negative effects of UUO on body weight gain; Body weight course after surgery, in words ([2]; mg/kg PO QD: Repirinast 30, Bemithyl 200, Bromantane 40, Telmisartan+Bemithyl 3+200): no initial decrease in body weight; Drained Left Kidney ([3]; ligated kidney drained, Repirinast 90 mg/kg): 0.1648 g; Drained Left Kidney [3, 7]: 0.1808 g; Excised Left Kidney ([3]; Repirinast 90 mg/kg): 0.3681 g; Right Kidney (g) ([3]; Repirinast 90 mg/kg): 0.1378* g; BUN in comparison to control groups, in words ([4]; Example 1, UUO, male C57BL/6 mice, PO QD days 1-14, doses of Table 1): less renal dysfunction and disease progression than the positive control treatment; also recorded: decreased in comparison to the sham surgery control group; Reduction in levels of BUN compared to vehicle, significance in words ([4]; p<0.05, Tamhane post-test, Example 1, Repirinast 30, Bemithyl 200, Bromantane 20 mg/kg PO QD): significant reductions in the levels of BUN
2 | CCCc1nc2c(C)cc(-c3nc4ccccc4n3C)cc2n1Cc1ccc(-c2ccccc2C(=O)O)cc1 [Telmisartan, 2-(4-{[4-Methyl-6-(1-methyl-1H-1,3-benzodiazol-2-yl)-2-propyl-1H-1,3-benzodiazol-1-yl]methyl}phenyl)benzoic acid] | did not reduce levels of BUN; also recorded: did not show significant reductions | 23.5 mg/dL | 0.20 mg/dL | 0 g | -0.24 g | 0.39 g | 0.45 g | 0.58 g | 0.411 g | 0.1263* g | did not show a significant reduction; also recorded: the former was not statistically significant | Drained Left Kidney (g) [3, 7]: 0.1853* g

From patent US12280026B2, “Use of repirinast in the prophylaxis or treatment of renal fibrosis or kidney disease” (ALGERNON PHARMACEUTICALS INC., priority 2018, dated 2025)
